From patent publication US20200331904A1, “3-AMINO-[1,2,4]-TRIAZOLE DERIVATIVES AND THEIR USE FOR CONTROLLING UNDESIRED PLANT GROWTH” (Bayer CropScience Aktiengesellschaft, priority 2017, published 2020)

Key:
Format in all cases: in vivo
Echinochloa crus-galli = test: Pre-emergence herbicidal efficacy, ECHCG; settings: Table B1, application rate 320 g/ha, scored visually after about 3 weeks vs untreated controls
Description: (§1) C.1 Pre-Emergence Herbicidal Action and Crop Plant Compatibility
(§2) Seeds of monocotyledonous and dicotyledonous weed plants and crop plants are placed in plastic or organic planting pots and covered with soil. The compounds of the invention, formulated in the form of wettable powders (WP) or as emulsion concentrates (EC), are then applied onto the surface of the covering soil as aqueous suspension or emulsion with addition of 0.5% additive at a water application rate of […] (converted). After the treatment, the pots are placed in a greenhouse and kept under good growth conditions for the trial plants. After about 3 weeks, the effect of the preparations is scored visually in comparison with untreated controls as percentages. For example, 100% activity=the plants have died, 0% activity=like control plants.
(§3) ABUTH: Abutilon theophrasti ALOMY: Alopecurus myosuroides AMARE: Amaranthus retroflexus AVEFA: Avena fatua CYPES: Cyperus esculentus ECHCG: Echinochloa crus-galli LOLMU: Lolium multiflorum MATIN: Matricaria inodora PHBPU: Ipomoea purpurea POLCO: Polygonum convolvulus SETVI: Setaria viridis STEME: Stellaria media VERPE: Veronica persica VTOTR: Viola tricolor

Lolium rigidum = test: Pre-emergence herbicidal efficacy, LOLRI; settings: Table B1, application rate 320 g/ha, scored visually after about 3 weeks vs untreated controls
Description: C.1 Pre-Emergence Herbicidal Action and Crop Plant Compatibility Seeds of monocotyledonous and dicotyledonous weed plants and crop plants are placed in plastic or organic planting pots and covered with soil. The compounds of the invention, formulated in the form of wettable powders (WP) or as emulsion concentrates (EC), are then applied onto the surface of the covering soil as aqueous suspension or emulsion with addition of 0.5% additive at a water application rate of […] (converted). After the treatment, the pots are placed in a greenhouse and kept under good growth conditions for the trial plants. After about 3 weeks, the effect of the preparations is scored visually in comparison with untreated controls as percentages. For example, 100% activity=the plants have died, 0% activity=like control plants. […] Here, for example, compound Nos. I-214 and I-196, when applied pre-emergence, have very good activity (80% to 100% herbicidal activity) against harmful plants such as Abutilon theophrasti, Amaranthus retroflexus, Echinochloa crus-galli, Lolium rigidum, Matricaria inodora, Polygonum convolvulus, Setaria viridis, Stellaria media, Veronica persica and Viola tricolor at an application rate of 0.32 kg of active substance or less per hectare. At the same time, some of the compounds according to the invention leave Gramineae crops such as barley, wheat, rye, millet/sorghum, corn, rice or sugar cane virtually undamaged when applied pre-emergence, even at high active compound dosages. In addition, some substances are also harmless to dicotyledonous crops such as soya, cotton, oilseed rape or sugar beet.

Setaria viridis = test: Pre-emergence herbicidal efficacy, SETVI; settings: Table B1, application rate 320 g/ha, scored visually after about 3 weeks vs untreated controls
Description: as §1, §2, §3

Abutilon theophrasti = test: Pre-emergence herbicidal efficacy, ABUTH; settings: Table B1, application rate 320 g/ha, scored visually after about 3 weeks vs untreated controls
Description: as §1, §2, §3

Amaranthus retroflexus = test: Pre-emergence herbicidal efficacy, AMARE; settings: scored visually after about 3 weeks vs untreated controls
Description: as §1, §2, §3

Matricaria inodora = test: Pre-emergence herbicidal efficacy, MATIN
Description: as §1, §2, §3

Polygonum convolvulus = test: Pre-emergence herbicidal efficacy, POLCO; settings: scored visually after about 3 weeks vs untreated controls
Description: as §1, §2, §3

Stellaria media = test: Pre-emergence herbicidal efficacy, STEME
Description: as §1, §2, §3

Viola tricolor = test: Pre-emergence herbicidal efficacy, VIOTR
Description: as §1, §2, §3

Veronica persica = test: Pre-emergence herbicidal efficacy, VERPE; settings: scored visually after about 3 weeks vs untreated controls
Description: as §1, §2, §3

[1] = Table B1, application rate 320 g/ha
[2] = Table B1, application rate 320 g/ha, scored visually after about 3 weeks vs untreated controls
[3] = application rate 320 g/ha, scored visually after about 3 weeks
[4] = Table B2, application rate 320 g/ha
[5] = Table B2, application rate 320 g/ha, scored visually after about 3 weeks vs untreated controls

Compound | Herbicidal efficacy against ECHCG (Echinochloa crus-galli) | Herbicidal efficacy against LOLRI (Lolium rigidum) | Herbicidal efficacy against SETVI (Setaria viridis) | Herbicidal efficacy against ABUTH (Abutilon theophrasti) | Herbicidal efficacy against AMARE (Amaranthus retroflexus; [1]) | Herbicidal efficacy against MATIN (Matricaria inodora; [2]) | Herbicidal efficacy against POLCO (Polygonum convolvulus; [1]) | Herbicidal efficacy against STEME (Stellaria media; [2]) | Herbicidal efficacy against VIOTR (Viola tricolor; [2]) | Herbicidal efficacy against VERPE (Veronica persica; [1]) | Herbicidal efficacy against MATIN (Matricaria inodora; [3]) | Herbicidal efficacy against STEME (Stellaria media; [3]) | Herbicidal efficacy against VIOTR (Viola tricolor; [3]) | Herbicidal efficacy against AMARE (Amaranthus retroflexus; [4]) | Herbicidal efficacy against MATIN (Matricaria inodora; [5]) | Herbicidal efficacy against POLCO (Polygonum convolvulus; [4]) | Herbicidal efficacy against STEME (Stellaria media; [5]) | Herbicidal efficacy against VIOTR (Viola tricolor; [5]) | Herbicidal efficacy against VERPE (Veronica persica; [4])
Cc1ccc2c(c1)C(Nc1nc3n(n1)CCCC[S+]3[O-])CCC2 (stereo not shown) [Example I-246] | 100% | 100% | 100% | 80% | 100% | 100% | 100% | 100% | 100% | 100% | – | – | – | – | – | – | – | – | –
Fc1ccc2c(c1)[C@H](Nc1nc3n(n1)CCCCS3)CCC2 [Example I-215] | 100% | 100% | 100% | 100% | 100% | 100% | 100% | 100% | 100% | 100% | – | – | – | – | – | – | – | – | –
Cc1ccc2c(c1)C(Nc1nc3n(n1)CCN(C(=O)c1ccc(Cl)cc1)C3)C(C)C2 (stereo not shown) [Example I-171] | 90% | 100% | 100% | 100% | 100% | 100% | 100% | 100% | 100% | 100% | – | – | – | – | – | – | – | – | –
Cc1ccc2c(c1)C(Nc1nc3n(n1)CCC(=O)N3CC1CCCCC1)CC2 (stereo not shown) [Example I-256] | 90% | 80% | 100% | 100% | 100% | 100% | 100% | 100% | 100% | 100% | – | – | – | – | – | – | – | – | –
Cc1ccc2c(c1)[C@H](Nc1nc3n(n1)CCN(C(=O)C1CC1)C3)CC2 [Example I-175] | 100% | 100% | 100% | 100% | 100% | 100% | 100% | 100% | 100% | 100% | – | – | – | – | – | – | – | – | –
CC(=O)N1CCCn2nc(NC3CCCc4ccc(C)cc43)nc21 (stereo not shown) [Example I-321] | – | 100% | – | 80% | 100% | 100% | 90% | 100% | 100% | 100% | 100% | 100% | 100% | – | – | – | – | – | –
Cc1ccc2c(c1)C(Nc1nc3n(n1)CCC[S+]3[O-])C(C)C2 (stereo not shown) [Example I-360] | 90% | – | 100% | 100% | 100% | 100% | 100% | 100% | 100% | 100% | – | – | – | – | – | – | – | – | –
CC1CCc2ccccc2C1Nc1nc2n(n1)CCCCS2 (stereo not shown) [Example I-356] | 100% | 100% | 100% | – | 100% | 100% | 100% | 100% | 100% | 100% | – | – | – | – | – | – | – | – | –
Cc1ccc2c(c1)[C@H](Nc1nc3n(n1)CCCS3)CC2 [Example I-347] | 100% | – | 100% | 100% | 100% | 100% | 100% | 100% | 100% | 100% | – | – | – | – | – | – | – | – | –
Cc1ccc2c(c1)[C@H](Nc1nc3n(n1)CCCCS3(=O)=O)CCO2 [Example I-381] | – | 100% | 100% | 100% | 100% | 100% | 100% | 100% | 100% | 100% | – | – | – | – | – | – | – | – | –
O=S1(=O)CCCCn2nc(N[C@@H]3CCc4ccccc43)nc21 [Example I-364, N-[(1R)-indan-1-yl]-4,4-dioxo-5,6,7,8-tetrahydro-[1,2,4]triazolo[5,1-b][1,3]thiazepin-2-amine] | – | – | – | – | – | – | – | – | – | – | – | – | – | 100% | 100% | 100% | 100% | 100% | 100%
Cc1ccc2c(c1)[C@H](Nc1nc3n(n1)CCN(S(=O)(=O)C1CCCC1)C3)CCC2 [Example I-201] | – | – | – | – | – | – | – | – | – | – | – | – | – | 100% | 90% | 100% | 100% | 100% | 100%
Cc1ccc2c(c1)[C@H](Nc1nc3n(n1)CCCS3(=O)=O)CCO2 [Example I-378] | – | – | – | – | – | – | – | – | – | – | – | – | – | 100% | 100% | 100% | 100% | 100% | 100%
